Here are results for 5 compounds from ChEMBL document CHEMBL4251574, “Design, synthesis, and biological evaluation of new 1,2,3-triazolo-2'-deoxy-2'-fluoro- 4'-azido nucleoside derivatives as potent anti-HBV agents” (Eur J Med Chem, 2018).

The subject of experiment [1] is Hepatitis B virus. As to the kind of experiment: Antiviral activity against Hepatitis B virus infected in human HepG2.2.15 cells assessed as inhibition of HBeAg secretion at 5 uM after 9 days by ELISA relative to control. It counts as functional. As to conditions: HepG2.2.15, 216 h.
The test system of experiment [2] is Hepatitis B virus. Kind of experiment: Antiviral activity against Hepatitis B virus infected in human HepG2.2.15 cells assessed as inhibition of HBsAg secretion at 5 uM after 9 days by ELISA relative to control. It counts as functional. As to conditions: HepG2.2.15, 216 h. Background: An ELISA detects its analyte on a solid surface through an enzyme-linked reagent.

Another experiment relates to HepG2 2.2.15. Kind of experiment: Cytotoxicity against human HepG2.2.15 cells after 9 days by MTT assay. The experiment is classed as functional. As to conditions: HepG2 2.2.15, 216 h. (Tetrazolium dyes change colour on reduction, which living cells bring about.)
For experiment [3], the system named is Human immunodeficiency virus 1. As to the kind of experiment: Antiviral activity against HIV1 infected in human C8166 cells assessed as reduction in viral infection by measuring inhibition of syncytia formation incubated for 3 to 7 days by p24 detection based ELISA. As to conditions: Human immunodeficiency virus 1, C8166. The experiment is classed as functional, organism-based.

Experiment [4] concerns Hepatitis B virus. Kind of experiment: Antiviral activity against Hepatitis B virus infected in human HepG2.2.15 cells assessed as inhibition of HBeAg secretion at 20 uM after 9 days by ELISA relative to control. It counts as functional. The note with it: HepG2.2.15, 216 h.
In experiment [5] the test system is Hepatitis B virus. As to the kind of experiment: Antiviral activity against Hepatitis B virus infected in human HepG2.2.15 cells assessed as inhibition of HBsAg secretion at 20 uM after 9 days by ELISA relative to control. The experiment is classed as functional. The note with it: HepG2.2.15, 216 h.
In experiment [6] the test system is Hepatitis B virus. Kind of experiment: Antiviral activity against Hepatitis B virus infected in human HepG2.2.15 cells assessed as inhibition of intracellular HBV DNA level at 20 uM measured on day 9 by FQ-PCR analysis. The experiment is classed as functional. As to conditions: HepG2.2.15, 216 h.
Experiment [7] has as its system Hepatitis B virus. As to the kind of experiment: Antiviral activity against Hepatitis B virus harboring rtV173L/L180M/M204V mutant infected in HepGRL1 cells assessed as inhibition of intracellular HBV DNA level at 20 uM measured on day 9 by FQ-PCR analysis relative to control. It counts as functional. The note with it: 216 h.
The subject of experiment [8] is Hepatitis B virus. Kind of experiment: Antiviral activity against Hepatitis B virus harboring rtV173L/L180M/M204V mutant infected in HepGRL1 cells assessed as inhibition of intracellular HBV DNA level at 20 uM measured on day 6 by FQ-PCR analysis relative to control. It counts as functional. The note with it: 144 h.
For experiment [9], the system named is Hepatitis B virus. As to the kind of experiment: Antiviral activity against Hepatitis B virus infected in human HepG2.2.15 cells assessed as intracellular HBV DNA levels at 20 uM measured on day 6 by FQ-PCR analysis. It counts as functional. The note with it: HepG2.2.15, 144 h.
Experiment [10] deals with Duck hepatitis B virus. Kind of experiment: Antiviral activity against DHBV infected in duck assessed as inhibition of viral DNA level in serum at 10 mg/kg, po administered once daily measured on day 10 by SYBR Green I dye-based FQ-PCR analysis relative to control. The note with it: 240 h. The experiment is classed as functional.
The subject of experiment [11] is Duck hepatitis B virus. As to the kind of experiment: Antiviral activity against DHBV infected in duck assessed as inhibition of viral DNA level in serum at 10 mg/kg, po administered once daily measured on day 15 by SYBR Green I dye-based FQ-PCR analysis relative to control. It counts as functional. As to conditions: 360 h.
Experiment [12] deals with Duck hepatitis B virus. As to the kind of experiment: Antiviral activity against DHBV infected in duck assessed as inhibition of viral DNA level in liver at 10 mg/kg, po administered once daily measured on day 10 by SYBR Green I dye-based FQ-PCR analysis relative to control. It counts as functional. As to conditions: 240 h.
Experiment [13] relates to Duck hepatitis B virus. Kind of experiment: Antiviral activity against DHBV infected in duck assessed as inhibition of viral DNA level in liver at 10 mg/kg, po administered once daily measured on day 15 by SYBR Green I dye-based FQ-PCR analysis relative to control. The note with it: 360 h. The experiment is classed as functional.

SMILES strings stand for the structures.

A word on the inhibition: it is the share of the control response that was lost under treatment. In general, CC50 refers to the concentration that lowers cell viability or growth by half. The low end stands for harm at low concentration, the high end for better tolerance by the cells. With `COC(=N)c1cn([C@@H]2O[C@@](CO)(N=[N+]=[N-])[C@@H](O)[C@@H]2F)nn1`, the inhibition at 5 µM in the experiment on Hepatitis B virus [1] worked out at 11.4%; with Hepatitis B virus [2] it was 17.7%. In the experiment with HepG2 2.2.15, this compound displayed a half-maximal cytotoxic concentration (CC50) of 101 µM.
In general, EC50 refers to the concentration at which the effect is half-maximal. For `[N-]=[N+]=N[C@]1(CO)O[C@@H](n2ccc(N)nc2=O)[C@@H](F)[C@@H]1O` [RO-0622], the EC50 in experiment [3] was found to be 0.0003 µM.
For `[N-]=[N+]=N[C@]1(CO)O[C@@H](n2cc(CO)nn2)[C@@H](F)[C@@H]1O`, the results for the inhibition at 5 µM in the experiment on Hepatitis B virus [1] and in the experiment with Hepatitis B virus [2] were 10.8% and 21.5%, respectively. This compound also had a CC50 in the experiment on HepG2 2.2.15 above 1000 µM.
What is called inhibition in vivo is the change of the read-out against control, counted positive when it falls. Turning to `Nc1ccn([C@@H]2CS[C@H](CO)O2)c(=O)n1` [LAMIVUDINE], the inhibition at 20 µM with Hepatitis B virus [4] is 22.1%; in the experiment on Hepatitis B virus [5], 47.7%; in the experiment on Hepatitis B virus [6] it was 85.7%; in the experiment on Hepatitis B virus [7], 12.9%; with Hepatitis B virus [8], 10.8%; with Hepatitis B virus [9], 75.4%. Also, the CC50 in the experiment on HepG2 2.2.15 is above 1000 µM. In addition, the inhibition in vivo at 10 mg/kg with Duck hepatitis B virus [10] came out at 65.2%; in the experiment with Duck hepatitis B virus [11], 85.7%; in the experiment on Duck hepatitis B virus [12] it was 57.1%; in the experiment with Duck hepatitis B virus [13], 75.6%.
For `[N-]=[N+]=N[C@]1(CO)O[C@@H](n2cc(C3CC3)nn2)[C@@H](F)[C@@H]1O`, the inhibition at 5 µM in the experiment on Hepatitis B virus [1] came out at 26.2%; in the experiment on Hepatitis B virus [2], 28.9%. Further, in the experiment on HepG2 2.2.15, the CC50 is above 1000 µM.
